According to ChEMBL document CHEMBL5625256, “Rapid access to icetexane diterpenes: Their protective effects against lipopolysaccharides-induced acute lung injury via PI3K/AKT/NF-κB axis in macrophages” (Eur J Med Chem, 2023):
Active and inactive are the calls of the source. The calls are words filed in the database; no cut-off is given here.

How the values were obtained:
[1] = test system: RAW264.7; assay: Cytotoxicity against mouse RAW264.7 cells assessed as reduction in cell viability at 60 uM measured after 24 hrs by MTT assay; type: toxicity, cell-based; details: raw264.7, 24 h
[2] = test system: RAW264.7; assay: Antiinflammatory activity against mouse RAW264.7 cells assessed as reduction in LPS-induced ROS production incubated for 8 hrs by DCFH-DA staining based flow cytometry analysis; type: functional, cell-based; details: dose <= 20.0 µM
[3] = test system: RAW264.7; assay: Antiinflammatory activity against LPS-induced mouse RAW264.7 cells assessed as decrease in TNF-alpha mRNA expression at 10 uM incubated for 8 hrs by RT-PCR analysis; type: functional, cell-based
[4] = test system: RAW264.7; assay: Antiinflammatory activity against LPS-induced mouse RAW264.7 cells assessed as decrease in nuclear translocation incubated for 8 hrs by Western blot analysis; type: functional, cell-based; details: dose <= 20.0 µM
[5] = test system: Mus musculus; assay: Antiinflammatory activity against LPS-induced […] C57BL/6 mouse model assessed as reduction in IL-1beta mRNA expression in lung at 5 to 25 mg/kg, ip incubated for 24 hrs by RT-PCR analysis; type: functional, organism-based; details: dose 5-25 mg/kg
[6] = test system: Mus musculus; assay: Antiinflammatory activity against LPS-induced […] C57BL/6 mouse model assessed as reduction in IL-6 mRNA expression in lung at 5 to 25 mg/kg, ip incubated for 24 hrs by RT-PCR analysis; type: functional, organism-based; details: dose 5-25 mg/kg
[7] = test system: RAW264.7; assay: Antiinflammatory activity against LPS-induced mouse RAW264.7 cells assessed as decrease in IL-1beta mRNA expression incubated for 8 hrs by RT-PCR analysis; type: functional, cell-based; details: dose <= 20.0 µM
[8] = test system: Mus musculus; assay: In vivo inhibition of PI3K-AKT phosphorylation in LPS-induced […] C57BL/6 mouse model at 5 to 25 mg/kg, ip measured for 24 hrs by Western blot analysis; type: functional, organism-based; details: dose 5-25 mg/kg
[9] = test system: Mus musculus; assay: Antiinflammatory activity against LPS-induced […] in ip dosed C57BL/6 mouse model assessed as increase in SOD level in serum incubated for 24 hrs; type: functional, organism-based; details: dose 5-25 mg/kg
[10] = test system: Mus musculus; assay: Antiinflammatory activity against LPS-induced […] C57BL/6 mouse model assessed as reduction IkappaBalpha level in lung at 5 to 25 mg/kg, ip incubated for 24 hrs by Western blot analysis; type: functional, organism-based; details: dose 5-25 mg/kg
[11] = test system: RAW264.7; assay: Antiinflammatory activity against LPS-induced mouse RAW264.7 cells transfected with AKT shRNA assessed as decrease in IL-6 expression incubated for 8 hrs by Western blot analysis; type: functional, cell-based; details: dose <= 20.0 µM
[12] = test system: RAW264.7; assay: Antiinflammatory activity against LPS-induced mouse RAW264.7 cells transfected with AKT shRNA assessed as decrease in IL-1beta expression incubated for 8 hrs by Western blot analysis; type: functional, cell-based; details: dose <= 20.0 µM
[13] = test system: RAW264.7; assay: Antiinflammatory activity against LPS-induced mouse RAW264.7 cells assessed as downregulation of AKT level incubated for 8 hrs by Western blot analysis; type: functional, cell-based; details: dose <= 20.0 µM
[14] = test system: RAW264.7; assay: Antiinflammatory activity against LPS-induced mouse RAW264.7 cells assessed as inhibition of NO release incubated for 8 hrs […]; type: functional, cell-based; details: dose <= 20.0 µM
[15] = test system: RAW264.7; assay: Antiinflammatory activity against LPS-induced mouse RAW264.7 cells transfected with AKT shRNA assessed as decrease in TNF-alpha expression incubated for 8 hrs by Western blot analysis; type: functional, cell-based; details: dose <= 20.0 µM
[16] = test system: RAW264.7; assay: Antiinflammatory activity against LPS-induced mouse RAW264.7 cells assessed as decrease in IkappaBalpha level incubated for 8 hrs by DAPI staining based immunofluorescence analysis; type: functional, cell-based; details: dose <= 20.0 µM
[17] = test system: RAW264.7; assay: Antiinflammatory activity against LPS-induced mouse RAW264.7 cells assessed as decrease in IL-6 mRNA expression at 10 uM incubated for 8 hrs by RT-PCR analysis; type: functional, cell-based
[18] = test system: RAW264.7; assay: Antiinflammatory activity against LPS-induced mouse RAW264.7 cells assessed as decrease in IL-6 mRNA expression incubated for 8 hrs by RT-PCR analysis; type: functional, cell-based; details: dose <= 20.0 µM
[19] = test system: RAW264.7; assay: Antiinflammatory activity against LPS-induced mouse RAW264.7 cells assessed as downregulation of total AKT level incubated for 8 hrs by Western blot analysis; type: functional, cell-based; details: dose <= 20.0 µM
[20] = test system: RAW264.7; assay: Antiinflammatory activity against LPS-induced mouse RAW264.7 cells assessed as downregulation of PI3K level incubated for 8 hrs by Western blot analysis; type: functional, cell-based; details: dose <= 20.0 µM
[21] = test system: RAW264.7; assay: Antiinflammatory activity against LPS-induced mouse RAW264.7 cells assessed as downregulation of total PI3K level incubated for 8 hrs by Western blot analysis; type: functional, cell-based; details: dose <= 20.0 µM
[22] = test system: RAW264.7; assay: Antiinflammatory activity against LPS-induced mouse RAW264.7 cells assessed as decrease in TNF-alpha mRNA expression incubated for 8 hrs by RT-PCR analysis; type: functional, cell-based; details: dose <= 20.0 µM
[23] = test system: RAW264.7; assay: Antiinflammatory activity against LPS-induced mouse RAW264.7 cells assessed as decrease in IL-1beta mRNA expression at 10 uM incubated for 8 hrs by RT-PCR analysis; type: functional, cell-based
[24] = test system: Mus musculus; assay: In vivo inhibition of PI3K-AKT phosphorylation in LPS-induced […] C57BL/6 mouse model at 5 to 25 mg/kg, ip measured for 24 hrs by Immunohistochemistry analysis; type: functional, organism-based; details: dose 5-25 mg/kg
[25] = test system: RAW264.7; assay: Antiinflammatory activity against LPS-induced mouse RAW264.7 cells assessed as decrease in nuclear translocation incubated for 8 hrs by DAPI staining based immunofluorescence analysis; type: functional, cell-based; details: dose <= 20.0 µM
[26] = test system: RAW264.7; assay: Antiinflammatory activity against LPS-induced mouse RAW264.7 cells assessed as suppression of iNOS mRNA expression incubated for 8 hrs by RT-PCR analysis; type: functional, cell-based; details: dose <= 20.0 µM
[27] = test system: Mus musculus; assay: Antiinflammatory activity against LPS-induced […] C57BL/6 mouse model assessed as reduction in lung injury score at 5 to 25 mg/kg, ip incubated for 24 hrs by H and E staining based analysis; type: functional, organism-based; details: dose 5-25 mg/kg
[28] = test system: Mus musculus; assay: Antiinflammatory activity against LPS-induced […] in ip dosed C57BL/6 mouse model assessed as reduction in MDA level in serum incubated for 24 hrs; type: functional, organism-based; details: dose 5-25 mg/kg
[29] = test system: RAW264.7; assay: Antiinflammatory activity against LPS-induced mouse RAW264.7 cells assessed as decrease in IkappaBalpha level incubated for 8 hrs by Western blot analysis; type: functional, cell-based; details: dose <= 20.0 µM
[30] = test system: RAW264.7; assay: Antiinflammatory activity against LPS-induced mouse RAW264.7 cells assessed as decrease in NF-kappaB level incubated for 8 hrs by Western blot analysis; type: functional, cell-based; details: dose <= 20.0 µM
[31] = test system: Mus musculus; assay: Antiinflammatory activity against LPS-induced […] C57BL/6 mouse model assessed as reduction in TNF-alpha mRNA expression in lung at 5 to 25 mg/kg, ip incubated for 24 hrs by RT-PCR analysis; type: functional, organism-based; details: dose 5-25 mg/kg
[32] = test system: RAW264.7; assay: Antiinflammatory activity against LPS-induced mouse RAW264.7 cells assessed as decrease in NF-kappaB level incubated for 8 hrs by DAPI staining based immunofluorescence analysis; type: functional, cell-based; details: dose <= 20.0 µM

CC(C)c1cc2c(c3c1OC(C)(C)O3)C=C1C=CC(=O)C(C)(C)C1=CC2
Activity [1]: Toxic

COc1c(C(C)C)cc2c(=O)cc3c(cc2c1OC)C=CC(=O)C3(C)C
Activity [2]: Dose-Dependent Effect
Activity [3]: Active
Activity [4]: Dose-Dependent Effect
Activity [5]: Active
Activity [6]: Active
Activity [7]: Dose-Dependent Effect
inhibition [8]: Active
Activity [9]: Dose-Dependent Effect
Activity [10]: Active
Activity [11]: Dose-Dependent Effect
Activity [12]: Dose-Dependent Effect
Activity [13]: Dose-Dependent Effect
Activity [14]: Dose-Dependent Effect
Activity [15]: Dose-Dependent Effect
Activity [16]: Dose-Dependent Effect
Activity [17]: Active
Activity [18]: Dose-Dependent Effect
Activity [19]: Dose-Dependent Effect
Activity [20]: Dose-Dependent Effect
Activity [21]: Dose-Dependent Effect
Activity [22]: Dose-Dependent Effect
Activity [23]: Active
inhibition [24]: Active
Activity [25]: Dose-Dependent Effect
Activity [26]: Dose-Dependent Effect
Activity [27]: Active
Activity [28]: Dose-Dependent Effect
Activity [29]: Dose-Dependent Effect
Activity [30]: Dose-Dependent Effect
Activity [31]: Active
Activity [32]: Dose-Dependent Effect

C[C@@H]1C[C@H]2[C@@H]3CCC4=CC(=O)C=C[C@]4(C)[C@@]3(F)[C@@H](O)C[C@]2(C)[C@@]1(O)C(=O)CO
Activity [3]: Active
Activity [17]: Active
Activity [23]: Active

COc1c(C(C)C)cc2c(=O)cc3c(cc2c1OC)C=CC(O)C3(C)C (configuration not stated)
Activity [1]: Toxic

CC(C)c1cc2c(c(O)c1O)C=C1C=CC(=O)C(C)(C)C1CC2=O (configuration not stated)
Activity [1]: Toxic
